Drawing on patent publication US20220380347A1, “INHIBITORS OF CYSTEINE PROTEASES AND METHODS OF USE THEREOF” (Pardes Biosciences, Inc., priority 2020, published 2022), this text covers EC50 and IC50 for 31 compounds.

One experiment relates to HCoV 229E. Put plainly: HCoV 229E cytopathic effect (CPE) assay, CellTiter Glo. In kind it is cell-based, human coronavirus (HCov) 229E. As to conditions: protection of virus-induced CPE. The method, then:
Example 238: Evaluation of antiviral activity of compounds against human coronavirus (HCov) 229E and OC43 in the cytopathic effect (CPE) assays
Compounds were assayed using standard methods against multiple coronaviral strains, including HCoV 229E and OC43 strains. The antiviral activity of compounds was calculated based on the protection of the virus-induced CPE at each concentration normalized by the virus control.
Cytopathic effect (CPE) was measured by CellTiter Glo following the manufacturer's manual. The antiviral activity of compounds was calculated based on the protection of the virus-induced CPE at each concentration normalized by the virus control.
Cell viability was measured with CellTiter Glo.
Background: Damage to the host cells serves as the signal in cytopathic effect assays.

The next experiment concerns HCov OC43. Put plainly: HCoV OC43 cytopathic effect (CPE) assay, CellTiter Glo. In kind it is cell-based, human coronavirus (HCov) OC43.
Another experiment deals with 229E Mpro (Human coronavirus 229E, UniProt P0C6X1). Put plainly: 229E Mpro enzymatic assay (standard methods, SARS-CoV2 Mpro assay given as exemplary). The class given is biochemical, human coronavirus (HCov) 229E. An outline of the steps:
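Run by standard methods, with the SARS-CoV-2 Mpro protocol given as the model: E. coli-expressed C-His6 protease at 25 nM and substrate at 25 μM (Km 13.5 μM). Buffer pH 7.3 with 5 mM TCEP and 0.1% BSA; % inhibition versus controls fitted to variable-slope log(inhibitor)-response for IC50.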

Experiment [1] concerns the target COVID-19 (nCoV-2019, SARS-CoV2) Mpro (Severe acute respiratory syndrome coronavirus 2, UniProt P0DTD1). Nature of the experiment: COVID-19 (nCoV-2019, SARS-CoV2) Mpro enzymatic assay. In kind it is biochemical. Conditions: 25 nM Mpro, 25 μM substrate; read-out: COVID-19 Mpro IC50.
[2] abbreviates: Betacoronavirus 1, OC43, read-out: OC43 IC50 (uM) MEDIAN, median.

Like-named read-outs stand apart in the source and are kept apart here. Bounds are passed on as bounds.

229E Mpro, sequence (P0C6X1 2966-3267): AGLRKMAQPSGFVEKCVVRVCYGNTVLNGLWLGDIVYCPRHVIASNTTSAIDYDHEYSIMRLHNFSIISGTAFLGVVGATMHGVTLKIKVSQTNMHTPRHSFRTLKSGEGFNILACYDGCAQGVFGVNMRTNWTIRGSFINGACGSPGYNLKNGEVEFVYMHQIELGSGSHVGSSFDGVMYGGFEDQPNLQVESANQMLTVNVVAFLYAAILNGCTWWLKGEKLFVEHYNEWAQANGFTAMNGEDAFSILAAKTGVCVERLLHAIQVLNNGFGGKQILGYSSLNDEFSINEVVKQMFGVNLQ

For orientation: EC50 means the concentration giving half of the maximal effect. The term IC50 denotes the concentration that gives 50% inhibition. As for `CN1CCN(C(=O)C(c2cccnc2)N(C(=O)[C@H]2CCCN2C#N)c2ccc(C(C)(C)C)cc2)CC1` (mixture of isomers) [Compound 967, (2R)—N-(4-(tert-butyl)phenyl)-1-cyano-N-(2-(4-methylpiperazin-1-yl)-2-oxo-1-(pyridin-3-yl)ethyl)pyrrolidine-2-carboxamide], the EC50 in the experiment on HCoV 229E (unidentified human coronavirus) was 2000 to 10000 nM; at 229E Mpro (229E Mpro EC50), below 2000 nM. In addition, the IC50 was in the range of 2 to 10 µM in the experiment on HCov OC43 (setting [2]) and 2000 to 10000 nM in experiment [1].

For `CC(C)(C)c1ccc(N(C(=O)[C@H]2C[C@@H](Oc3ccccc3)CN2C#N)C(C(=O)NC2CCCCC2)c2cccnc2)cc1` (single isomer, unassigned) [307 Isomer 1], the EC50 in the experiment on HCoV 229E (unidentified human coronavirus) and at 229E Mpro (229E Mpro EC50) was below 2000 nM each time. Besides, the IC50 was below 2 µM in the experiment with HCov OC43 (setting [2]) and below 2000 nM in experiment [1].

In the case of `CC(C)(C)c1ccc(N(C(=O)[C@H]2C[C@@H](O)CN2C#N)C(C(=O)NCCN2CCOCC2)c2cccnc2)cc1` (single isomer, unassigned) [587 Isomer 1], the EC50 in the experiment on HCoV 229E (unidentified human coronavirus) and on 229E Mpro (229E Mpro EC50) was below 2000 nM throughout. Also, the IC50 was below 2 µM in the experiment on HCov OC43 (setting [2]) and below 2000 nM in experiment [1].

For the compound `CC(C)(C)c1ccc(N(C(=O)[C@H]2C[C@@H](O)CN2C#N)C(C(=O)NCCN2CCOCC2)c2cccnc2)cc1` (single isomer, unassigned) [587 Isomer 2], the figures for the EC50 in the experiment with HCoV 229E and on 229E Mpro (read-out: 229E Mpro EC50) were 2000 to 10000 nM and below 2000 nM, respectively. The IC50 in the experiment with HCov OC43 (read-out: OC43 IC50 (uM) MEDIAN, median) lay in the range of 2 to 10 µM; in experiment [1], 2000 to 10000 nM.

In turn, `N#CN1C[C@H](O)C[C@@H]1C(=O)N(c1ccc(C2(C(F)(F)F)CC2)cc1)C(C(=O)NC1CCC(F)(F)CC1)c1cncc(F)c1` (single isomer, unassigned) [815 Isomer 1] returned an EC50 in the experiment with HCoV 229E (unidentified human coronavirus) below 2000 nM.

Consider `N#CN1C[C@H](O)C[C@@H]1C(=O)N(c1ccc(C2(C(F)(F)F)CC2)cc1)C(C(=O)NC1CCC(F)(F)CC1)c1cncc(F)c1` (single isomer, unassigned) [815 Isomer 2], for which the EC50 in the experiment with HCoV 229E is below 2000 nM.

`CC(C)(C)c1ccc(N(C(=O)[C@H]2COCCN2C#N)C(C(=O)NC2CCCCC2)c2cccnc2)cc1` (single isomer, unassigned) [Compound 202 Isomer 1]: the EC50 in the experiment on HCoV 229E (unidentified human coronavirus) and on 229E Mpro (229E Mpro EC50) was below 2000 nM in each case. Moreover, the IC50 in experiment [1] is below 2000 nM.

`CC(C)(C)c1ccc(N(C(=O)[C@@]2(C)CCCN2C#N)C(C(=O)NC2CCCCC2)c2cccnc2)cc1` (single isomer, unassigned) [Compound 238 Isomer 1] returned an EC50 in the experiment on HCoV 229E (unidentified human coronavirus) of 2000 to 10000 nM.

The compound `CC(C)(C)c1ccc(N(C(=O)[C@@]2(C)CCCN2C#N)C(C(=O)NC2CCCCC2)c2cccnc2)cc1` (single isomer, unassigned) [Compound 238 Isomer 2] showed an EC50 in the experiment on HCoV 229E below 2000 nM.

Turning to `C[C@H]1CC[C@H](C(=O)N(c2ccc(C(C)(C)C)cc2)C(C(=O)NC2CCCCC2)c2cccnc2)N1C#N` (single isomer, unassigned) [Compound 247 Isomer 1], the 50% effective concentration (EC50) with HCoV 229E (unidentified human coronavirus) and at 229E Mpro (229E Mpro EC50) was below 2000 nM throughout. Also, in experiment [1], the IC50 was in the range of 2000 to 10000 nM.

For `CC(C)(C)c1ccc(N(C(=O)[C@H]2C[C@@H](O)CN2C#N)C(C(=O)NC2CCCCC2)c2cccnc2)cc1` (single isomer, unassigned) [Compound 254 Isomer 1], the EC50 with HCoV 229E is 2000 to 10000 nM; at 229E Mpro (read-out: 229E Mpro EC50), below 2000 nM. In addition, the 50% inhibitory concentration (IC50) in experiment [1] is 2000 to 10000 nM.

As for `CC(C)(C)c1ccc(N(C(=O)[C@H]2C[C@@H](O)CN2C#N)C(C(=O)NC2CCCCC2)c2cccnc2)cc1` (single isomer, unassigned) [Compound 254], the EC50 in the experiment with HCoV 229E (unidentified human coronavirus) and at 229E Mpro (229E Mpro EC50) was below 2000 nM in each case. For the same compound, the IC50 in experiment [1] was below 2000 nM.

As to `CC(C)(C)c1ccc(N(C(=O)[C@H]2C[C@H](O)CN2C#N)C(C(=O)NC2CCCCC2)c2cccnc2)cc1` (single isomer, unassigned) [Compound 255 Isomer 1], the concentration for a half-maximal effect (EC50) is 10000 to 30000 nM in the experiment on HCoV 229E (listed as 255 Isomer 1) and below 2000 nM on 229E Mpro (229E Mpro EC50). The IC50 in experiment [1] is 2000 to 10000 nM.

Regarding `CC(C)(C)c1ccc(N(C(=O)[C@H]2C[C@H](O)CN2C#N)C(C(=O)NC2CCCCC2)c2cccnc2)cc1` (single isomer, unassigned) [Compound 255 Isomer 2], the EC50 in the experiment on HCoV 229E (listed as 255 Isomer 2) and at 229E Mpro (read-out: 229E Mpro EC50) was below 2000 nM each time. In experiment [1], the half-maximal inhibitory concentration (IC50) was below 2000 nM.

The compound `CC(C)(C)c1ccc(N(C(=O)[C@H]2Cc3ccccc3CN2C#N)C(C(=O)NC2CCCCC2)c2cccnc2)cc1` (single isomer, unassigned) [Compound 374] registered an EC50 in the experiment on HCoV 229E (unidentified human coronavirus) below 2000 nM.

As to `CC(C)(C)c1ccc(N(C(=O)[C@H]2CCCN2C#N)C(C(=O)NC2CCCCC2)c2cccnc2)cc1` (single isomer, unassigned) [Compound 1248 Isomer 1], the EC50 in the experiment with HCoV 229E (unidentified human coronavirus) was below 2000 nM.

Compound `CC(C)(C)c1ccc(N(C(=O)[C@H]2CCCN2C#N)C(C(=O)NC2CCCCC2)c2cccnc2)cc1` (single isomer, unassigned) [Compound 1248 Isomer 2] had an EC50 with HCoV 229E of 2000 to 10000 nM.

Consider `CC1(C(=O)N(c2ccc(C(C)(C)C)cc2)C(C(=O)NC2CCCCC2)c2cccnc2)CN(C#N)C1` (stereo not shown) [Compound 128, N-(4-tert-butylphenyl)-1-cyano-N-[2-(cyclohexylamino)-2-oxo-1-(3-pyridyl)ethyl]-3-methyl-azetidine-3-carboxamide], for which the EC50 in the experiment with HCoV 229E (unidentified human coronavirus) and at 229E Mpro (229E Mpro EC50) was 2000 to 10000 nM throughout. The IC50 in experiment [1] was 10000 to 30000 nM.

In the experiment on HCoV 229E (unidentified human coronavirus), `CC(C)(C)c1ccc(N(C(=O)[C@H]2CCC(C)(C)N2C#N)C(C(=O)NC2CCCCC2)c2cccnc2)cc1` (stereo partly drawn) [Compound 262, (2R)—N-(4-tert-butylphenyl)-1-cyano-N-[2-(cyclohexylamino)-2-oxo-1-(3-pyridyl)ethyl]-5,5-dimethyl-pyrrolidine-2-carboxamide] came in with an EC50 below 2000 nM.

The compound `CC(C)(C)c1ccc(N(C(=O)C2c3ccccc3CN2C#N)C(C(=O)NC2CCCCC2)c2cccnc2)cc1` (stereo not shown) [Compound 371] displayed an EC50 in the experiment with HCoV 229E (unidentified human coronavirus) below 2000 nM.

`CC(C)(C)c1ccc(N(C(=O)[C@H]2CCCN2C#N)C(C(=O)NCCN2CCOCC2)c2cccnc2)cc1` (stereo partly drawn) [Compound 391, (2R)—N-(4-(tert-butyl)phenyl)-1-cyano-N-(2-((2-morpholinoethyl)amino)-2-oxo-1-(pyridin-3-yl)ethyl)pyrrolidine-2-carboxamide] registered an EC50 in the experiment on HCoV 229E (unidentified human coronavirus) of 2000 to 10000 nM.

Take `COc1ccc(NC(=O)C(c2cccnc2)N(C(=O)[C@H]2CCCN2C#N)c2ccc(C(C)(C)C)cc2)cn1` (stereo partly drawn) [Compound 407, (2R)—N-(4-(tert-butyl)phenyl)-1-cyano-N-(2-((6-methoxypyridin-3-yl)amino)-2-oxo-1-(pyridin-3-yl)ethyl)pyrrolidine-2-carboxamide]: in the experiment on HCoV 229E (unidentified human coronavirus), the EC50 is below 2000 nM.

`CC(C)(C)c1ccc(N(C(=O)[C@H]2CCCN2C#N)C(C(=O)NC2CCCCC2)c2cncc(F)c2)cc1` (stereo partly drawn) [Compound 475, (2R)—N-(4-(tert-butyl)phenyl)-1-cyano-N-(2-(cyclohexylamino)-1-(5-fluoropyridin-3-yl)-2-oxoethyl)pyrrolidine-2-carboxamide] had an EC50 with HCoV 229E (unidentified human coronavirus) below 2000 nM.

In the experiment with HCoV 229E (unidentified human coronavirus), `CC(C)(C)c1ccc(N(C(=O)C2CCC(F)(F)CN2C#N)C(C(=O)NC2CCCCC2)c2cccnc2)cc1` (stereo not shown) [Compound 885] registered an EC50 of 2000 to 10000 nM.

In the experiment on HCoV 229E (unidentified human coronavirus), `CC(C)(C)c1ccc(N(C(=O)[C@H]2[C@H](F)CCN2C#N)C(C(=O)NC2CCCCC2)c2cccnc2)cc1` (stereo partly drawn) [Compound 910, (2S,3R)—N-(4-tert-butylphenyl)-1-cyano-N-[2-(cyclohexylamino)-2-oxo-1-(3-pyridyl)ethyl]-3-fluoro-pyrrolidine-2-carboxamide] registered an EC50 below 2000 nM.

Consider `CC(C)(C)c1ccc(N(C(=O)[C@H]2CCCN2C#N)C(C(=O)N2CCOCC2)c2cccnc2)cc1` (stereo partly shown) [Compound 959], for which the EC50 in the experiment with HCoV 229E (unidentified human coronavirus) was 2000 to 10000 nM.

In the case of `O=C(NC1CCCCC1)C(c1cnnc2ccccc12)N(C(=O)[C@H]1C[C@@H](O)CN1)c1ccc(S(F)(F)(F)(F)F)cc1` (stereo partly shown) [Compound 988], the EC50 in the experiment with HCoV 229E (unidentified human coronavirus) is below 2000 nM.

For `COc1cncc(C(C(=O)NC2CCCCC2)N(C(=O)[C@H]2C[C@@H](O)CN2C#N)c2ccc(C(C)(C)C)cc2)c1` (stereo partly shown) [Compound 992], in the experiment on HCoV 229E (unidentified human coronavirus), the concentration for a half-maximal effect (EC50) lay in the range of 2000 to 10000 nM.

Compound `CO[C@@H]1C[C@H](C(=O)N(c2ccc(S(F)(F)(F)(F)F)cc2)C(C(=O)N2CCNCC2)c2cccnc2)N(C#N)C1` (stereo partly shown) [Compound 1149] had an EC50 in the experiment on HCoV 229E (unidentified human coronavirus) below 2000 nM.

On to `C[C@H](NC(=O)C(c1cnccc1C(F)(F)F)N(C(=O)[C@H]1C[C@@](C)(O)CN1C#N)c1ccc(S(F)(F)(F)(F)F)cc1)c1ccccc1` (stereo partly drawn) [Compound 1347, (2R,4R)-1-cyano-4-hydroxy-4-methyl-N-[2-oxo-2-[[(1S)-1-phenylethyl]amino]-1-[4-(trifluoromethyl)-3-pyridyl]ethyl]-N-[4-(pentafluoro-λ6-sulfanyl)phenyl]pyrrolidine-2-carboxamide], for which the IC50 with HCov OC43 (setting [2]) was below 2 µM; in experiment [1] it was below 2000 nM. On 229E Mpro (229E Mpro EC50), the EC50 was below 2000 nM.

`C[C@@H]1OCCN(C#N)[C@H]1C(=O)N(c1ccc(S(F)(F)(F)(F)F)cc1)C(C(=O)NC1CCOCC1)c1cncc(F)c1` (stereo partly shown) [Compound 1419]: the IC50 with HCov OC43 (setting [2]) is 2 to 10 µM; in experiment [1] it was below 2000 nM. Moreover, the concentration giving a half-maximal response (EC50) at 229E Mpro (229E Mpro EC50) is below 2000 nM.
